From patent US20260347353A1, “INDOLIZINE DERIVATIVES FOR TREATING CANCER” (Antares Therapeutics, Inc., priority 2022, published 2026)
pIC50, pKd: −log10 of the molar value.

Legend:
[1] = target: T1, p53 Y220C mutant protein (amino acid residues 94-293) (Homo sapiens, UniProt P04637, Y220C); assay: Surface Plasmon Resonance (SPR) assay, p53 Y220C Kd_kinetic; conditions: multi-cycle kinetics, 16 or 20 °C, pH 7.5, 1:1 binding model
T1 construct: p53 Y220C mutant protein (amino acid residues 94-293)
Description: SPR experiments are performed on a Biacore 8K instrument. […] Compounds are 2-fold, 7-point serial diluted; the top concentration varies depending on the potency. Compound binding affinities are measured in the multi-cycle kinetics mode, at 30 μL/min flow rate with 60 seconds association time and 120 seconds dissociation time. The running buffer contains 50 mM Tris, pH 7.5, 100 mM NaCl, 1 mM DTT, 0.01% Brij35, 0.05% Tween-20 and 1% DMSO. The assay temperature is maintained at 16 or 20 °C and data are fit into the 1:1 binding model using the Biacore Insight Evaluation software.

p53 Y220C = p53 Y220C (Homo sapiens, UniProt P04637, Y220C); assay: Luciferase Reporter Assay, p53 Y220C (NCIH1299 cells with inducible p53 Y220C and p53 response element-luciferase); format: cell-based; conditions: 6 hour compound treatment, read-out: Luc P53 Y220C AC50
Description: Luciferase reporter (Luc) driven by p53 response element (LTV-p53-Luc (SKU #: LTLR007); G&P Biosciences) and inducible p53 Y220C construct (Tet-One inducible expression system; Takara) were stably expressed in NCIH1299 cells by lentiviral transduction. The cells were then used for p53 reporter assay. 5,000 cells were seeded in each well of 384 plate and cultured in 0.5 ug/mL doxycycline (D3072; Sigma) containing medium for 24 hours before compound treatment. After 6 hour of compound treatment, equal volume of One-Glo reagent (E6110; Promega) was added to each well and the plate was incubated for 5 minutes with shaking at room temperature. The luciferase activity was immediately measured with PheraStar microplate reader. Luciferase activity was stimulated by 10 uM of a tool compound as positive control and AC50 was calculated.

NUGC3 cells (p53 Y220C) = assay: Cell Proliferation Assay (CellTiter-Glo), NUGC3 p53 Y220C; format: cell-based; conditions: Homo sapiens, NUGC-3, 120 h, 5 days, read-out: CTG NUGC3 P53 Y220C IC50
Description: (§1) Inducible p53 Y220C and R273H constructs (Tet-One inducible expression system; Takara) were stably expressed in NCIH1299 cells by lentiviral transduction. NUGC3, A549, BxPC3, T3M4, HuH7, HCC2935, MFE296, NCIH1299, NCIH1299-inducible p53 Y220C, and NCIH1299-inducible p53 R273H cell lines were used for cell proliferation assay. 250-500 cells were seeded in each well of 384 plate and then compounds were dispensed into each well using Echo or Tecan. After 5 days of incubation, equal volume of CellTiter-Glo reagent (G7570; Promega) was added into each well and the plate was incubated at room temperature for 10 minutes with shaking. The luminescent signal was measured by PheraStar microplate reader and IC50 was calculated.

[2] = system: NCIH1299-inducible p53 Y220C cells; assay: Cell Proliferation Assay (CellTiter-Glo), NCIH1299-inducible p53 Y220C; format: cell-based; conditions: Homo sapiens, NCI-H1299, 120 h, 5 days, read-out: CTG H1299 P53 Y220C IC50
Description: as §1

T1 sequence (P04637 94-293, stated change not applied): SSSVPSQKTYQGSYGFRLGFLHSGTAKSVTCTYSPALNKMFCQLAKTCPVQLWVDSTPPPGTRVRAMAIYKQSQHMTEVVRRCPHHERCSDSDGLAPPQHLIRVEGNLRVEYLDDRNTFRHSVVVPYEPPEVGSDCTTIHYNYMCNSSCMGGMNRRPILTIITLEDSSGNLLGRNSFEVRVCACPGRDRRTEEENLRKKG

Row | SMILES | pKd [1] | AC50 (p53 Y220C) | pIC50 (NUGC3 cells (p53 Y220C)) | pIC50 [2]
1 | CN1CC[C@@H](Nc2cccn3c(SC(F)(F)F)c(-c4noc(CNC(=O)c5cnn(C(C)(C)C)c5)n4)cc23)[C@@H](F)C1 [Example 2, 1-tert-butyl-N-{[3-(8-{[(3S,4R)-3-fluoro-1-methylpiperidin-4-yl]amino}-3-[(trifluoromethyl)sulfanyl]indolizin-2-yl)-1,2,4-oxadiazol-5-yl]methyl}pyrazole-4-carboxamide] | > 8.00 | < 750 nM | > 6.12 | > 6.12
2 | CN1CC[C@@H](Nc2cccn3c(SC(F)(F)F)c(-c4noc(CNC(=O)c5ccc(C#N)s5)n4)cc23)[C@@H](F)C1 [Example 39, 5-cyano-N-{[3-(8-{[(3S,4R)-3-fluoro-1-methylpiperidin-4-yl]amino}-3-[(trifluoromethyl)sulfanyl]indolizin-2-yl)-1,2,4-oxadiazol-5-yl]methyl}thiophene-2-carboxamide] | 7.00 to 8.00 | 750 to 1500 nM | > 6.12 | > 6.12
3 | CN1CC[C@@H](Nc2cccn3c(SC(F)(F)F)c(-c4noc(CNC(=O)C5(C(F)(F)F)CC5)n4)cc23)[C@@H](F)C1 [Example 47, N-{[3-(8-{[(3S,4R)-3-fluoro-1-methylpiperidin-4-yl]amino}-3-[(trifluoromethyl)sulfanyl]indolizin-2-yl)-1,2,4-oxadiazol-5-yl]methyl}-1-(trifluoromethyl)cyclopropane-1-carboxamide] | 7.00 to 8.00 | ≥ 3000 nM | ≤ 5.52 | ≤ 5.52
4 | CC(=O)NCc1nc(-c2cc3c(N[C@@H]4CCN(C)C[C@@H]4F)cccn3c2SC(F)(F)F)no1 [Example 59, N-{[3-(8-{[(3S,4R)-3-fluoro-1-methylpiperidin-4-yl]amino}-3-[(trifluoromethyl)sulfanyl]indolizin-2-yl)-1,2,4-oxadiazol-5-yl]methyl}acetamide] | > 8.00 | 750 to 1500 nM | 5.82 to 6.12 | > 6.12
5 | CN1CC[C@@H](Nc2cccn3c(SC(F)(F)F)c(-c4noc(CNC(=O)c5ccc6[nH]cc(C#N)c6c5)n4)cc23)[C@@H](F)C1 [Example 19, 3-cyano-N-{[3-(8-{[(3S,4R)-3-fluoro-1-methylpiperidin-4-yl]amino}-3-[(trifluoromethyl)sulfanyl]indolizin-2-yl)-1,2,4-oxadiazol-5-yl]methyl}-1H-indole-5-carboxamide] | 7.00 to 8.00 | 750 to 1500 nM | > 6.12 | > 6.12
6 | COc1ccc2[nH]nc(C(=O)NCc3nc(-c4cc5c(N[C@@H]6CCN(C)C[C@@H]6F)cccn5c4SC(F)(F)F)no3)c2c1 [Example 21, N-{[3-(8-{[(3S,4R)-3-fluoro-1-methylpiperidin-4-yl]amino}-3-[(trifluoromethyl)sulfanyl]indolizin-2-yl)-1,2,4-oxadiazol-5-yl]methyl}-5-methoxy-1H-indazole-3-carboxamide] | 6.00 to 7.00 | 1500 to 3000 nM | 5.52 to 5.82 | 5.52 to 5.82
7 | CN1CC[C@@H](Nc2cccn3c(SC(F)(F)F)c(-c4noc(CNC(=O)c5sccc5N)n4)cc23)[C@@H](F)C1 [Example 33, 3-amino-N-{[3-(8-{[(3S,4R)-3-fluoro-1-methylpiperidin-4-yl]amino}-3-[(trifluoromethyl)sulfanyl]indolizin-2-yl)-1,2,4-oxadiazol-5-yl]methyl}thiophene-2-carboxamide] | > 8.00 | < 750 nM | > 6.12 | > 6.12
8 | CN1CC[C@@H](Nc2cccn3c(SC(F)(F)F)c(-c4noc(CNC(=O)N5CCOCC5)n4)cc23)[C@@H](F)C1 [Example 67, N-{[3-(8-{[(3S,4R)-3-fluoro-1-methylpiperidin-4-yl]amino}-3-[(trifluoromethyl)sulfanyl]indolizin-2-yl)-1,2,4-oxadiazol-5-yl]methyl}morpholine-4-carboxamide] | > 8.00 | 750 to 1500 nM | 5.52 to 5.82 | 5.82 to 6.12
9 | CN1CC[C@@H](Nc2cccn3c(SC(F)(F)F)c(-c4noc(CNC(=O)c5ccc(-c6ccn[nH]6)s5)n4)cc23)[C@@H](F)C1 [Example 56, N-{[3-(8-{[(3S,4R)-3-fluoro-1-methylpiperidin-4-yl]amino}-3-[(trifluoromethyl)sulfanyl]indolizin-2-yl)-1,2,4-oxadiazol-5-yl]methyl}-5-(2H-pyrazol-3-yl)thiophene-2-carboxamide] | 7.00 to 8.00 | 750 to 1500 nM | > 6.12 | > 6.12
10 | CN1CC[C@@H](Nc2cccn3c(SC(F)(F)F)c(-c4noc(CNC(=O)c5csc(N6CCOCC6)n5)n4)cc23)[C@@H](F)C1 [Example 20, N-{[3-(8-{[(3S,4R)-3-fluoro-1-methylpiperidin-4-yl]amino}-3-[(trifluoromethyl)sulfanyl]indolizin-2-yl)-1,2,4-oxadiazol-5-yl]methyl}-2-(morpholin-4-yl)-1,3-thiazole-4-carboxamide] | > 8.00 | < 750 nM | > 6.12 | > 6.12
11 | CN1CC[C@@H](Nc2cccn3c(SC(F)(F)F)c(-c4noc(CNC(=O)COc5ccc(C#N)cc5)n4)cc23)[C@@H](F)C1 [Example 43, 2-(4-cyanophenoxy)-N-{[3-(8-{[(3S,4R)-3-fluoro-1-methylpiperidin-4-yl]amino}-3-[(trifluoromethyl)sulfanyl]indolizin-2-yl)-1,2,4-oxadiazol-5-yl]methyl}acetamide] | 7.00 to 8.00 | 750 to 1500 nM | 5.82 to 6.12 | 5.82 to 6.12
12 | CN1CC[C@@H](Nc2cccn3c(SC(F)(F)F)c(-c4noc(CNC(=O)[C@H]5COCCO5)n4)cc23)[C@@H](F)C1 [Example 29] | > 8.00 | 750 to 1500 nM | 5.82 to 6.12 | 5.82 to 6.12
13 | CN1CC[C@@H](Nc2cccn3c(SC(F)(F)F)c(-c4noc(CNC(=O)c5sccc5F)n4)cc23)[C@@H](F)C1 [Example 32, 3-fluoro-N-{[3-(8-{[(3S,4R)-3-fluoro-1-methylpiperidin-4-yl]amino}-3-[(trifluoromethyl)sulfanyl]indolizin-2-yl)-1,2,4-oxadiazol-5-yl]methyl}thiophene-2-carboxamide] | > 8.00 | < 750 nM | > 6.12 | > 6.12
14 | COc1ccc2n[nH]c(CC(=O)NCc3nc(-c4cc5c(N[C@@H]6CCN(C)C[C@@H]6F)cccn5c4SC(F)(F)F)no3)c2c1 [Example 9, N-{[3-(8-{[(3S,4R)-3-fluoro-1-methylpiperidin-4-yl]amino}-3-[(trifluoromethyl)sulfanyl]indolizin-2-yl)-1,2,4-oxadiazol-5-yl]methyl}-2-(5-methoxy-1H-indazol-3-yl)acetamide] | 6.00 to 7.00 | ≥ 3000 nM | 5.52 to 5.82 | 5.52 to 5.82
15 | CN1CC[C@@H](Nc2cccn3c(SC(F)(F)F)c(-c4noc(CNC(=O)c5ccns5)n4)cc23)[C@@H](F)C1 [Example 27, N-{[3-(8-{[(3S,4R)-3-fluoro-1-methylpiperidin-4-yl]amino}-3-[(trifluoromethyl)sulfanyl]indolizin-2-yl)-1,2,4-oxadiazol-5-yl]methyl}-1,2-thiazole-5-carboxamide] | > 8.00 | < 750 nM | > 6.12 | 5.82 to 6.12
16 | Cc1ccsc1C(=O)NCc1nc(-c2cc3c(N[C@@H]4CCN(C)C[C@@H]4F)cccn3c2SC(F)(F)F)no1 [Example 30, N-{[3-(8-{[(3S,4R)-3-fluoro-1-methylpiperidin-4-yl]amino}-3-[(trifluoromethyl)sulfanyl]indolizin-2-yl)-1,2,4-oxadiazol-5-yl]methyl}-3-methylthiophene-2-carboxamide] | 7.00 to 8.00 | 750 to 1500 nM | 5.52 to 5.82 | 5.52 to 5.82
17 | CN1CC[C@@H](Nc2cccn3c(SC(F)(F)F)c(-c4noc(CNC(=O)C5(c6ccc(F)cc6)CC5)n4)cc23)[C@@H](F)C1 [Example 46, N-{[3-(8-{[(3S,4R)-3-fluoro-1-methylpiperidin-4-yl]amino}-3-[(trifluoromethyl)sulfanyl]indolizin-2-yl)-1,2,4-oxadiazol-5-yl]methyl}-1-(4-fluorophenyl)cyclopropane-1-carboxamide] | 6.00 to 7.00 | ≥ 3000 nM | ≤ 5.52 | ≤ 5.52
